The source of these data is patent US9796742B2, “Kinase inhibitors” (Respivert Limited, priority 2012, dated 2017).

In assay [1] the target is GSK3α (Homo sapiens (Human), UniProt P49840). The experiment in a line: GSK 3α enzyme inhibition (FRET, Z-LYTE; Method 2). In kind it is biochemical. The protocol: The enzyme inhibitory activities of compounds disclosed herein are determined by FRET using synthetic peptides labelled with both donor and acceptor fluorophores (Z-LYTE, Invitrogen Ltd., Paisley, UK).
Chain of GSK3α (P49840 whole entry, canonical isoform): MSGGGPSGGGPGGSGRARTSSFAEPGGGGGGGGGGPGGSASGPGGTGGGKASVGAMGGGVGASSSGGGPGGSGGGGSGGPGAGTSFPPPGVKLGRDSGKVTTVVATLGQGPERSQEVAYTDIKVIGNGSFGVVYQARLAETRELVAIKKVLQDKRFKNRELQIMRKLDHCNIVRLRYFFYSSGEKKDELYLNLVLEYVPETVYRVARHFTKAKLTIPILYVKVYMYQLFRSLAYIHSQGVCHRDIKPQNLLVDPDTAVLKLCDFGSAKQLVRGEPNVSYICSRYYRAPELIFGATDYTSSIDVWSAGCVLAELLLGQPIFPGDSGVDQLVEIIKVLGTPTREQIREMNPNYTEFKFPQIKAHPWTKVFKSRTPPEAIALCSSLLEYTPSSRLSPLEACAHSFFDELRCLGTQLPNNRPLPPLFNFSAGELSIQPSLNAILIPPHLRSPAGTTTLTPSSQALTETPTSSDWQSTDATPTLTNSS
The inhibitory activities of compounds of the invention against the GSK 3α enzyme isoform (Invitrogen), are evaluated by determining the level of activation/phosphorylation of the target peptide. The GSK3-α protein (500 ng/mL, 2.5 μL) is mixed with the test compound (2.5 μL at either 4 μg/mL, 0.4 μg/mL, 0.04 μg/mL, or 0.004 μg/mL) for 2 hr at RT. The FRET peptide (8 μM, 2.5 μL), which is a phosphorylation target for GSK3α, and ATP (40 μM, 2.5 μL) are then added to the enzyme/compound mixture and the resulting mixture incubated for 1 hr. Development reagent (protease, 5 μL) is added for 1 hr prior to detection in a fluorescence microplate reader (Varioskan® Flash, ThermoFisher Scientific).
In all cases, the site-specific protease cleaves non-phosphorylated peptide only and eliminates the FRET signal. Phosphorylation levels of each reaction are calculated using the ratio of coumarin emission (donor) over fluorescein emission (acceptor), for which high ratios indicate high phosphorylation and low ratios indicate low phosphorylation levels. The percentage inhibition of each reaction is calculated relative to non-inhibited control and the 50% inhibitory concentration (IC50 value) is then calculated from the concentration-response curve.
This method follows the same steps as Method 1 above, but utilises a shorter period of mixing of the test compound (105 minutes instead of 2 hours) with the GSK3-α protein.

Assay [2] concerns PBMCs. The experiment in a line: LPS-induced TNFα/IL-8 release in PBMC cells. It is filed as cell-based. The settings on record: Homo sapiens, LPS-stimulated PBMCs, IL-8, read-out: IC50 Values for Inhibition of Cytokine Release, PBMCs IL-8. Here is the method: Peripheral blood mononuclear cells (PBMCs) from healthy subjects are separated from whole blood using a density gradient (Lymphoprep, Axis-Shield Healthcare). The PBMCs are seeded in 96 well plates and treated with compounds at the desired concentration for 2 hours before addition of 1 ng/mL LPS (Escherichia Coli 0111:B4 from Sigma Aldrich) for 24 hours under normal tissue culture conditions (37° C., 5% CO2). The supernatant is harvested for determination of IL-8 and TNFα concentrations by sandwich ELISA (Duo-set, R&D systems) and read on the fluorescence microplate reader (Varioskan® Flash, ThermoFisher Scientific). The concentration at 50% inhibition (IC50) of IL-8 and TNFα production is calculated from the dose response curve.

`CC(C)(C)c1cc(NC(=O)Nc2ccc(Oc3ccnc(Nc4ccc(P(C)(C)=O)cc4)n3)c3ccccc23)n(-c2ccc(P(C)(C)=O)cc2)n1` [Example 25, 1-(3-(tert-Butyl)-1-(4-(dimethylphosphoryl)phenyl)-1H-pyrazol-5-yl)-3-(4-((2-((4-(dimethyl-phosphoryl)phenyl)amino)pyrimidin-4-yl)oxy)naphthalen-1-yl)urea]: the IC50 (usually the midpoint of a concentration-inhibition curve) in assay [1] is 163 nM; in assay [2], 14.4 nM.

Turning to `CC(C)(C)c1cc(NC(=O)Nc2ccc(Oc3ccnc(N4CCC[C@H]4CO)n3)c3ccccc23)n(-c2ccc(P(C)(C)=O)cc2)n1` [Example 26, (S)-1-(3-(tert-Butyl)-1-(4-(dimethylphosphoryl)phenyl)-1H-pyrazol-5-yl)-3-(4-((2-(2-(hydroxymethyl)pyrrolidin-1-yl)pyrimidin-4-yl)oxy)naphthalen-1-yl)urea], the IC50 worked out at 8130 nM in assay [1] and 189 nM in assay [2].

In the case of `CC(C)(C)c1cc(NC(=O)Nc2ccc(Oc3ccnc(N4CCC[C@@H]4CO)n3)c3ccccc23)n(-c2ccc(P(C)(C)=O)cc2)n1` [Example 27, (R)-1-(3-(tert-Butyl)-1-(4-(dimethylphosphoryl)phenyl)-1H-pyrazol-5-yl)-3-(4-((2-(2-(hydroxymethyl)pyrrolidin-1-yl)pyrimidin-4-yl)oxy)naphthalen-1-yl)urea], the IC50 was determined as 979 nM in assay [1] and 209 nM in assay [2].

In the case of `CC(C)(C)c1cc(NC(=O)Nc2ccc(Oc3ccnc(NCCCO)n3)c3ccccc23)n(-c2ccc(P(C)(C)=O)cc2)n1` [Example 31, 1-(3-(tert-Butyl)-1-(4-(dimethylphosphoryl)phenyl)-1H-pyrazol-5-yl)-3-(4-((2-((3-hydroxy-propyl)amino)pyrimidin-4-yl)oxy)naphthalen-1-yl)urea], the IC50 in assay [1] turned out to be 211 nM; in assay [2] it was 90.2 nM.

With `CC(C)(C)c1cc(NC(=O)Nc2ccc(Oc3ccnc(Nc4ccc5c(c4)NC(=O)C5)n3)c3ccccc23)n(-c2cccc(CP(C)(C)=O)c2)n1` [Example 33, 1-(3-(tert-Butyl)-1-(3-((dimethylphosphoryl)methyl)phenyl)-1H-pyrazol-5-yl)-3-(4-((2-((2-oxoindolin-6-yl)amino)pyrimidin-4-yl)oxy)naphthalen-1-yl)urea], the IC50 was 326 nM in assay [1] and 2.4 nM in assay [2].

As for `CC(C)(C)c1cc(NC(=O)Nc2ccc(Oc3ccnc(Nc4cccc(OCCN5CCOCC5)c4)n3)c3ccccc23)n(-c2cccc(CP(C)(C)=O)c2)n1` [Example 34, 1-(3-(tert-Butyl)-1-(3-((dimethylphosphoryl)methyl)phenyl)-1H-pyrazol-5-yl)-3-(4-((2-((3-(2-morpholinoethoxy)phenyl)amino)pyrimidin-4-yl)oxy)naphthalen-1-yl)urea], the figures for the IC50 in assay [1] and in assay [2] were 324 nM and 1.1 nM, respectively.

For the compound `COc1ccccc1Nc1nccc(Oc2ccc(NC(=O)Nc3cc(C(C)C)nn3-c3cccc(CP(C)(C)=O)c3)c3ccccc23)n1` [Example 40, 1-(1-(3-((dimethylphosphoryl)methyl)phenyl)-3-isopropyl-1H-pyrazol-5-yl)-3-(4-((2-((2-methoxyphenyl)amino)pyrimidin-4-yl)oxy)naphthalen-1-yl)urea], the IC50 in assay [1] was found to be 8920 nM; in assay [2], 104 nM.

Take `C#Cc1cc(Nc2nccc(Oc3ccc(NC(=O)Nc4cc(C(C)C)nn4-c4cccc(CP(C)(C)=O)c4)c4ccccc34)n2)cc(C(=O)NCCN2CCOCC2)c1` [Example 43, 3-((4-((4-(3-(1-(3-((Dimethylphosphoryl)methyl)phenyl)-3-isopropyl-1H-pyrazol-5-yl)ureido)naphthalen-1-yl)oxy)pyrimidin-2-yl)amino)-5-ethynyl-N-(2-morpholinoethyl)benzamide]: the results for the IC50 in assay [1] and in assay [2] were 174 nM and 1.6 nM, respectively.
